Data published in US10363288B2, “Insulin mimotopes and methods of using the same” (THE REGENTS OF THE UNIVERSITY OF COLORADO, a body corporate, priority 2015, dated 2019).

What was measured:
CD4 T cells = assay: CFSE proliferation assay of CD4 T cells from PBMCs of established T1D subjects; format: cell-based, human
NOD mouse = conditions: administered at low doses; cited from earlier work

SHLVEALYLVCGEEG [B: 9-23 B22E, B:9-23 mimotope; B22 arginine to glutamic acid]
proliferation of CD4 T cells (CFSE dilution) (CD4 T cells): proliferation of CD4 T cells much more than the wild type peptide | inducing tolerance and preventing diabetes onset (NOD mouse): completely preventing diabetes onset
